According to US9192577B2, “Pharmaceutical compositions comprising a basic drug compound, a surfactant, and a physiologically tolerable water soluble acid” (Janssen Pharmaceutica NV, priority 2002, dated 2015):
Like-named read-outs stand apart in the source and are kept apart here.

Key:
[1] = tested on: mock-infected MT-4 cells; assay: cytotoxicity (CC50) in mock-infected MT-4 cells (MTT); assay type: cell-based
Procedure: (§1) A rapid, sensitive and automated assay procedure was used for the in vitro evaluation of anti-HIV agents. […] Inhibition of the HIV-induced cytopathic effect was used as the end point. The viability of both HIV- and mock-infected cells was assessed spectrophotometrically via the in situ reduction of 3-(4,5-dimethylthiazol-2-yl)-2,5-diphenyltetrazolium bromide (MTT). The 50% cytotoxic concentration (CC50 in M) was defined as the concentration of compound that reduced the absorbance of the mock-infected control sample by 50%. The percent protection achieved by the compound in HIV-infected cells was calculated by the following formula:
(§2) [formula] whereby (ODT)HIV is the optical density measured with a given concentration of the test compound in HIV-infected cells; (ODC)HIV is the optical density measured for the control untreated HIV-infected cells; (ODC)MOCK is the optical density measured for the control untreated mock-infected cells; all optical density values were determined at 540 nm. The dose achieving 50% protection according to the above formula was defined as the 50% inhibitory concentration (IC50 in M). The ratio of CC50 to IC50 was defined as the selectivity index (SI).

[2] = tested on: HIV; assay: in vitro anti-HIV assay: inhibition of HIV-induced cytopathic effect in MT-4 cells (MTT); assay type: cell-based; conditions: for pSI: pSI = pCC50-pIC50 (selectivity index CC50/IC50); for pIC50 (M): −log IC50
Procedure: as §1, §2

[3] = 50% protection against HIV-induced cytopathic effect in MT-4 cells, MTT

Structure (SMILES)	pIC50 (M) [2, 3] [M]	IC50 ([2]; Human immunodeficiency virus 1, MT4, −log IC50, 50% protection against HIV-induced cytopathic effect in MT-4 cells, MTT) [nM]	pCC50 (M) [1] [M]	pSI [2]	pCC50 (M) ([1]; −log CC50, mock-infected MT-4 cells, MTT)
Cc1cc(C=C(C#N)CC#N)cc(C)c1Nc1ccnc(Nc2ccc(C#N)cc2)n1 (mixture of isomers) [Compound 147]	9.4	–	5.7	−3.7	–
Cc1cc(/C=C/C#N)cc(C)c1Nc1ccnc(Nc2ccc(C#N)cc2)n1 [Compound 1, 4-[[4-[[4-(2-cyanoethenyl)-2,6-dimethylphenyl]amino]-2-pyrimidinyl]amino]benzonitrile]	–	–	–	−4.4	–
Cc1cc(/C=C/C#N)cc(C)c1Nc1ccnc(Nc2ccc(C#N)cc2)n1 [Compound 10]	–	0.631	–	−2.9	6.3
Cc1cc(C=CC#N)cc(C)c1Oc1ccnc(Nc2ccc(C#N)cc2)n1 [Compound 25]	9	–	–	−5	–
CC(=NO)c1cc(C)c(Nc2ccnc(Nc3ccc(C#N)cc3)n2)c(C)c1 [Compound 45]	8.7	–	5.0	−3.8	–
Cc1cc(CN(C)CCC#N)cc(C)c1Nc1ccnc(Nc2ccc(C#N)cc2)n1 [Compound 75]	9.0	–	5.0	−4.0	–
C/C(=C\C#N)c1cc(C)c(Nc2ccnc(Nc3ccc(C#N)cc3)n2)c(C)c1 [Compound 84]	9.0	–	4.5	−4.5	–
Cc1cc(/C=C/C#N)cc(Cl)c1Nc1ccnc(Nc2ccc(C#N)cc2)n1 [Compound 133]	9.2	–	4	−5.2	–
Cc1cc(CC(C#N)C#N)cc(C)c1Nc1ccnc(Nc2ccc(C#N)cc2)n1 [Compound 144]	8.6	–	6.4	−2.2	–
Cc1cc(/C=C/c2cccnc2)cc(C)c1Nc1ccnc(Nc2ccc(C#N)cc2)n1 [Compound 146]	–	–	–	−3	–
CC/C(=C\C#N)c1cc(C)c(Nc2ccnc(Nc3ccc(C#N)cc3)n2)c(C)c1 [Compound 148]	8.8	–	4.9	−3.9	–
Cc1cc(/C(=C/C#N)C(C)C)cc(C)c1Nc1ccnc(Nc2ccc(C#N)cc2)n1 [Compound 149]	9.1	–	5.3	−3.8	–
Cc1cc(/C(=C\C#N)C(C)C)cc(C)c1Nc1ccnc(Nc2ccc(C#N)cc2)n1 [Compound 150]	8.8	–	4.8	−4.0	–
CC(C#N)=Cc1cc(C)c(Nc2ccnc(Nc3ccc(C#N)cc3)n2)c(C)c1 [Compound 151]	9.1	–	5.5	−3.6	–
CC(C#N)=Cc1cc(C)c(Nc2ccnc(Nc3ccc(C#N)cc3)n2)c(C)c1 [Compound 152]	9.1	–	4.8	−4.3	–
Cc1cc(CC(C)C#N)cc(C)c1Nc1ccnc(Nc2ccc(C#N)cc2)n1 (stereo not shown) [Compound 153]	9.2	–	6.3	−2.9	–
CCN(C)C(=O)/C=C/c1cc(C)c(Nc2ccnc(Nc3ccc(C#N)cc3)n2)c(C)c1 [Compound 158]	8	–	5.5	−2.5	–
Cc1cc(CN(C)C=NC#N)cc(C)c1Oc1ccnc(Nc2ccc(C#N)cc2)n1 [Compound 174]	8.8	–	5.3	−3.5	–
Cc1cc(/C=C\Br)cc(C)c1Oc1ccnc(Nc2ccc(C#N)cc2)n1 [Compound 177]	8.3	–	<4.0	<−4.3	–
CC(C#N)=Cc1cc(C)c(Oc2ccnc(Nc3ccc(C#N)cc3)n2)c(C)c1 [Compound 178]	8.8	–	5.7	−3.1	–
CC(C#N)=Cc1cc(C)c(Oc2ccnc(Nc3ccc(C#N)cc3)n2)c(C)c1 [Compound 179]	8.9	–	<4.0	<−4.9	–
Cc1cc(/C=C/C(=O)N(C)CC#N)cc(C)c1Oc1ccnc(Nc2ccc(C#N)cc2)n1 [Compound 212]	9.1	–	5	−4.1	–
C/C(=C\C#N)c1cc(C)c(Oc2ccnc(Nc3ccc(C#N)cc3)n2)c(C)c1 [Compound 213]	9	–	4.8	−4.2	–
Cc1cc(/C=C/C(=O)N(C)CCC#N)cc(C)c1Oc1ccnc(Nc2ccc(C#N)cc2)n1 [Compound 214]	8.6	–	5.1	−3.5	–

Now from value to compound, other results behind:

pIC50 (M) [2, 3] [M]	IC50 ([2]; Human immunodeficiency virus 1, MT4, −log IC50, 50% protection against HIV-induced cytopathic effect in MT-4 cells, MTT) [nM]	Structure (SMILES)	pCC50 (M) [1] [M]	pSI [2]	pCC50 (M) ([1]; −log CC50, mock-infected MT-4 cells, MTT)
9.1	–	CCN(C)C(=O)/C=C/c1cc(C)c(Oc2ccnc(Nc3ccc(C#N)cc3)n2)c(C)c1 [Compound 215]	5.5	−3.6	–
9.1	–	Cc1cc(/C=C/C(=O)N(C)C)cc(C)c1Oc1ccnc(Nc2ccc(C#N)cc2)n1 [Compound 219]	5	−4.1	–
9.5	–	Cc1cc(CCC#N)ccc1Nc1ccnc(Nc2ccc(C#N)cc2)n1 [Compound 227]	<4.0	<−5.5	–
8.8	–	CC(C#N)=Cc1ccc(Nc2ccnc(Nc3ccc(C#N)cc3)n2)c(C)c1 [Compound 229]	<4.0	<−4.8	–
9.2	–	Cc1cc(/C=C/C#N)ccc1Oc1ccnc(Nc2ccc(C#N)cc2)n1 [Compound 230]	<4.0	<−5.2	–
9.2	–	CC(C#N)=Cc1ccc(Oc2ccnc(Nc3ccc(C#N)cc3)n2)c(C)c1 [Compound 231]	<4.0	<−5.2	–
8.4	–	C/C(=C\C#N)c1ccc(Oc2ccnc(Nc3ccc(C#N)cc3)n2)c(C)c1 [Compound 232]	<4.0	<−4.4	–
9.3	–	CC(C#N)=Cc1cc(C)c(Nc2ccnc(Nc3ccc(C#N)cc3)n2)c(Cl)c1 [Compound 233]	5.7	−3.6	–
8.7	–	Cc1cc(CCC#N)ccc1Oc1ccnc(Nc2ccc(C#N)cc2)n1 [Compound 234]	<4.0	<−4.7	–
9.3	–	Cc1cc(C(C)CC#N)ccc1Oc1ccnc(Nc2ccc(C#N)cc2)n1 (stereo not shown) [Compound 235]	<4.0	<−5.3	–
8.8	–	Cc1cc(CC(C)C#N)ccc1Oc1ccnc(Nc2ccc(C#N)cc2)n1 (stereo not shown) [Compound 236]	<4.0	<−4.8	–
8.9	–	Cc1cc(/C=C/C#N)ccc1Nc1ccnc(Nc2ccc(C#N)cc2)n1 [Compound 237]	<4.0	<−4.9	–
9.5	–	Cc1cc(CC#N)cc(Cl)c1Nc1ccnc(Nc2ccc(C#N)cc2)n1 [Compound 238]	5.6	−3.9	–
8.9	–	Cc1cc(/C=C/C#N)cc(-c2ccco2)c1Nc1ccnc(Nc2ccc(C#N)cc2)n1 [Compound 239]	5	−3.9	–
9.4	–	Cc1cc(CN(C)CCC#N)cc(Br)c1Nc1ccnc(Nc2ccc(C#N)cc2)n1 [Compound 241]	5.3	−4.1	–
9.2	–	N#C/C=C/c1ccc(Nc2ccnc(Nc3ccc(C#N)cc3)n2)c(Br)c1 [Compound 244]	4	−5.2	–
8.8	–	COc1cc(/C=C/C#N)ccc1Nc1ccnc(Nc2ccc(C#N)cc2)n1 [Compound 245]	4	−4.8	–
9.2	–	CC(C#N)=Cc1cc(C)c(Nc2ccnc(Nc3ccc(C#N)cc3)n2)c(Br)c1 [Compound 247]	6.2	−3	–
9.3	–	Cc1cc(/C=C/C#N)cc(Br)c1Nc1ccnc(Nc2ccc(C#N)cc2)n1 [Compound 248]	5.7	−3.5	–
8.5	–	COc1cc(C=C(C)C#N)ccc1Nc1ccnc(Nc2ccc(C#N)cc2)n1 [Compound 249]	4	−4.5	–
8.9	–	COc1cc(CCC#N)ccc1Nc1ccnc(Nc2ccc(C#N)cc2)n1 [Compound 251]	5	−3.9	–
